Here are results for one compound from patent publication US11958842B2, “Substituted phenazines and methods of treating cancer and bacterial diseases” (Adjutec Pharma AS, priority 2016, dated 2024).

Series [1] relates to human acute myeloid leukemia cell line MOLM-13. The series is described as follows: Cytotoxicity, WST-1 and nuclear morphology (Example 73). Conditions: Homo sapiens. In kind it is cell-based. The method in brief:
(§1)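 MOLM-13 (RPMI/FBS), NRK and H9c2 (DMEM/10% FBS) cells under 2% or 20% O2 at 37° C were exposed to analogues for 24 h (≤1% DMSO). Viability was read by WST-1, and cell death by Hoechst 33342 nuclear morphology; EC50 came from four-parameter regression.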

The subject of series [2] is normal rat kidney epithelial (NRK) cells. The series is described as above. The class given is cell-based. The conditions noted are these: Rattus norvegicus. The method in brief:
as §1

Series [3] concerns rat cardiomyoblast (H9c2) cells. Described as above. In kind it is cell-based. The conditions noted are these: Rattus norvegicus; H9c2, 19% O2, 24 hours of incubation; read-out: EC50 (μM) H9c2 19% O2. Put shortly: as §1
Series [4] has as its system hepG2. The series is described as follows: Cytotoxicity (Example 73, Table 2). The class given is cell-based. The conditions noted are these: Homo sapiens; hepG2, 24 hours of incubation; read-out: EC50 (μM) hepG2.
The nature of series [5]: Parallel artificial membrane permeability assay (PAMPA). The conditions noted are these: PAMPA, 50 μM in PBS, room temperature, five hours.
Series [6] has as its system methicillin-resistant S. aureus MRSA A4-37. As to the kind of experiment: Microbroth dilution MIC. Conditions: compound alone. The class given is cell-based. On the procedure:
(§2) Day 1: • Plate bacterial strain(s) on appropriate media: • Gram-negative bacteria with ESBLs or carbapenemases: green agar plates with 100 mg/L ampicillin • Gram-negative bacteria without β-lactamases: green agar plates • Gram-positive bacteria (Staphylococci and Enterococci): blood agar plates • Incubate o.n. at 37° C.
(§3) Prepare the Bacterial Inoculum: • Prepare a 0.5 McFarland suspension of bacteria in 0.85% NaCl. (Should be used within 15 min of preparation). • Dilute the 0.5 McFarland suspension 1:100 into MH broth.
(§4) Check the inoculum by diluting the prepared bacterial suspension 1:100 (10 μl bacterial suspension+990 μl 0.85% NaCl). Plate 10 μl of the dilution on MH agar plates (×2). Incubate o.n. at 37° C., count the colonies and calculate the final CFU/ml inoculum in the plate by multiplying the average number of colonies with 10000 and divide by 2. The final inoculum should be between 3-7×10^5 CFU/ml. • Add 50 μl of the prepared bacterial suspension to each well in the microtiter plate except negative growth control.
(§5) Preparation of Compounds/Antibiotics • Calculate the desired concentration-range and volume of the compounds/antibiotics in the assay. For antibiotics this will depend on the MIC to meropenem of the bacterial strains to be tested. Dilute the stock solution in MH broth. Make subsequent 2-fold dilutions in MH broth of the desired concentrations if a concentration range is to be tested (remember the extra dilution factor in the assay plate). Always include extra volume for pipetting. Take into consideration stock solutions that are made in buffers that have an effect on bacterial growth (e.g. DMSO).
(§6) This experimental design was used for the results in Tables 4 and 5 below. In Table 4, inhibitor concentration dependency on the MIC of meropenem was studied.

Series [7] concerns vancomycin-resistant E. faecium vanA A1-22. The series is described as follows: Microbroth dilution MIC. The class given is cell-based. The conditions noted are these: compound alone. How it is done: as §2, §3, §4, §5, §6

Each structure is given as a SMILES string. Where two headings read alike, the source gives them in different places. Where only a bound is given, the exact number is not on record here.

In the case of `COc1cccc2c1[n+]([O-])c1cccc(O)c1[n+]2O` [Example 5a, 1-hydroxy-6-methoxyphenazine 5.10-dioxide, reference compound], the concentration for a half-maximal effect (EC50) in series [1] (MOLM-13, 2% O2, 24 hours of incubation, read-out: EC50 (μM) MOLM-13 2% O2) worked out at 0.77 ± 0.13 µM; in series [1] (MOLM-13, 19% O2, 24 hours of incubation, read-out: EC50 (μM) MOLM-13 19% O2) it was 1.4 ± 0.3 µM; in series [2] (2% O2, 24 hours of incubation, read-out: EC50 (μM) NRK 2% O2), 76 ± 14 µM; in series [2] (19% O2, 24 hours of incubation, read-out: EC50 (μM) NRK 19% O2), 77 ± 11 µM; in series [3] it was 46 ± 4.1 µM; in series [4], 70 µM. In addition, the LogPeff in series [5] is −5.29. The MIC A4-37 S. aureus MRSA in series [6] is < 0.5 µg/mL. In series [7], the MIC A1-22 E. faecium vanA is < 8 µg/mL.
